How the values were obtained:
BRD4 (BD1+BD2) = biological target: T1, BRD4 (BD1+BD2) (Homo sapiens, UniProt O60885); conditions: read-out: BRD4 Binding Potency
T1 construct: 1.8 μg/ml recombinant BRD4 (BD1+BD2 domains) protein

HSP90α = HSP90α (Homo sapiens, UniProt P07900); assay: HSP90α Binding Fluorescent Polarization (FP) Assay; conditions: competition with FITC-geldanamycin; read-out: HSP90 Binding Potency
Method in brief: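 Competitive FP assay in which compound displaces FITC-geldanamycin from recombinant HSP90α (28 μg/ml before addition) in BSA-containing buffer. Compounds in 3-fold series from 40 μM to 2.0 nM (dilution-plate concentrations), tested in duplicate. Readings after 30, 60 and 120 min at 25 °C; background-subtracted mP fitted to four-parameter log[inhibitor]-response curve.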

MV4-11 cells = assay: MV4-11 Cell Cytotoxicity Assay; assay type: cell-based, human; conditions: human, MV4-11 cells, CCK-8
Excerpt: % Inhibition=100−(D−B)/(S−B)*100%.
S: The absorbance of the maximum (cells with DMSO)
B: The absorbance of the minimum (medium with DMSO)

Question: Which IC50 (BRD4 (BD1+BD2)) does the source give for Cc1sc2c(c1C)C(c1ccc(Cl)cc1)=N[C@@H](CCN(C)CCOc1ccc(-n3c(O)nnc3-c3cc(C(C)C)c(O)cc3O)cc1)c1nnc(C)n1-2 [Compound 65, (S)-4-(4-(4-(2-((2-(4-(4-chlorophenyl)-2,3,9-trimethyl-6H-thieno[3,2-f][1,2,4]triazolo[4,3-a][1,4]diazepin-6-yl)ethyl)(methyl)amino)ethoxy)phenyl)-5-hydroxy-4H-1,2,4-triazol-3-yl)-6-isopropylbenzene-1,3-diol] here?
Answer: Its IC50 is over 1000 nM.

Question: What about the IC50 (HSP90α) of the same compound?
Answer: Its IC50 is 100 to 1000 nM.

Question: And the IC50 at 72 h (MV4-11 cells)?
Answer: The IC50 at 72 h was 100 to 1000 nM.

Question: Cc1sc2c(c1C)C(c1ccc(Cl)cc1)=N[C@@H](CC(=O)N(C)CCOc1ccc(CN(C)Cc3ccc(-n4c(C(=O)NCC(F)(F)F)nnc4-c4cc(C(C)C)c(O)cc4O)cc3)cc1)c1nnc(C)n1-2 [Compound 101, (S)-4-(4-(((4-(2-(2-(4-(4-chlorophenyl)-2,3,9-trimethyl-6H-thieno[3,2-f][1,2,4]triazolo[4,3-a][1,4]diazepin-6-yl)-N-methylacetamido)ethoxy)benzyl)(methyl)amino)methyl)phenyl)-5-(2,4-dihydroxy-5-isopropylphenyl)-N-(2,2,2-trifluoroethyl)-4H-1,2,4-triazole-3-carboxamide, formic acid] was tested. Which IC50 (BRD4 (BD1+BD2)) did it give?
Answer: Its IC50 is over 1000 nM.

Question: What about the IC50 (HSP90α) of the same compound?
Answer: Its IC50 is over 1000 nM.

Question: And the IC50 at 72 h (MV4-11 cells)?
Answer: The IC50 at 72 h was under 100 nM.

Question: For Cc1sc2c(c1C)C(c1ccc(Cl)cc1)=N[C@@H](CC(=O)NCC1CCN(C(=O)C3CCN(Cc4ccc(-n5c(O)nnc5-c5cc(C(C)C)c(O)cc5O)cc4)CC3)C1)c1nnc(C)n1-2 (stereo partly drawn) [Compound 45, 2-((S)-4-(4-chlorophenyl)-2,3,9-trimethyl-6H-thieno[3,2-f][1,2,4]triazolo[4,3-a][1,4]diazepin-6-yl)-N-((1-(1-(4-(3-(2,4-dihydroxy-5-isopropylphenyl)-5-hydroxy-4H-1,2,4-triazol-4-yl)benzyl)piperidine-4-carbonyl)pyrrolidin-3-yl)methyl)acetamide, trifluoroacetic acid], which IC50 (BRD4 (BD1+BD2)) is on record?
Answer: Its IC50 is under 100 nM.

Question: And the IC50 (HSP90α)?
Answer: Its IC50 is under 100 nM.

Question: What about the IC50 at 72 h (MV4-11 cells) of the same compound?
Answer: Its IC50 at 72 h is under 100 nM.

Question: What does the source list for Cc1sc2c(c1C)C(c1ccc(Cl)cc1)=N[C@@H](CCNCCOc1ccc(-n3c(O)nnc3-c3cc(C(C)C)c(O)cc3O)cc1)c1nnc(C)n1-2 [Compound 62, (S)-4-(4-(4-(2-((2-(4-(4-chlorophenyl)-2,3,9-trimethyl-6H-thieno[3,2-f][1,2,4]triazolo[4,3-a][1,4]diazepin-6-yl)ethyl)amino)ethoxy)phenyl)-5-hydroxy-4H-1,2,4-triazol-3-yl)-6-isopropylbenzene-1,3-diol, trifluoroacetic acid]?
Answer: IC50 (BRD4 (BD1+BD2)): > 1000 nM; IC50 (HSP90α): 100 to 1000 nM; IC50 at 72 h (MV4-11 cells): 100 to 1000 nM

Question: With Cc1cc(-c2nnc(O)n2-c2ccc(CN3CCN(CC4CCN(C(=O)C[C@@H]5N=C(c6ccc(Cl)cc6)c6c(sc(C)c6C)-n6c(C)nnc65)CC4)CC3)cc2)c(O)cc1O [Compound 9, 2-((6S)-4-(4-chlorophenyl)-2,3,9-trimethyl-6H-thieno[3,2-f][1,2,4]triazolo[4,3-a][1,4]diazepin-6-yl)-1-(4-((4-(4-(3-(2,4-dihydroxy-5-methylphenyl)-5-hydroxy-4H-1,2,4-triazol-4-yl)benzyl)piperazin-1-yl)methyl)piperidin-1-yl)ethanone, trifluoroacetic acid] as the compound, how does the IC50 (BRD4 (BD1+BD2)) read?
Answer: Its IC50 is under 100 nM.

Question: What about the IC50 (HSP90α) of the same compound?
Answer: Its IC50 is 100 to 1000 nM.

Question: And the IC50 at 72 h (MV4-11 cells)?
Answer: Its IC50 at 72 h is under 100 nM.

Question: With CCc1cc(-c2nnc(C(=O)NCC(F)(F)F)n2-c2ccc(CN3CCN(CC4CCN(C(=O)C[C@@H]5N=C(c6ccc(Cl)cc6)c6c(sc(C)c6C)-n6c(C)nnc65)CC4)CC3)cc2)c(O)cc1O [Compound 14, 4-(4-((4-((1-(2-((6S)-4-(4-chlorophenyl)-2,3,9-trimethyl-6H-thieno[3,2-f][1,2,4]triazolo[4,3-a][1,4]diazepin-6-yl)acetyl)piperidin-4-yl)methyl)piperazin-1-yl)methyl)phenyl)-5-(5-ethyl-2,4-dihydroxyphenyl)-N-(2,2,2-trifluoroethyl)-4H-1,2,4-triazole-3-carboxamide, trifluoroacetic acid] as the compound, how does the IC50 (BRD4 (BD1+BD2)) read?
Answer: Its IC50 is over 1000 nM.

Question: And the IC50 (HSP90α)?
Answer: The IC50 was 100 to 1000 nM.

Question: And the IC50 at 72 h (MV4-11 cells)?
Answer: The IC50 at 72 h was under 100 nM.

Question: Which IC50 (BRD4 (BD1+BD2)) does the source give for COc1cccc(-c2cc(C(=O)Nc3ccc(-c4ccc(OC5CCN(C(=O)CNC(=O)C[C@@H]6N=C(c7ccc(Cl)cc7)c7c(sc(C)c7C)-n7c(C)nnc76)CC5)cc4O)cc3)ccc2OC)c1 [Compound 134] here?
Answer: The IC50 was over 1000 nM.

Question: What about the IC50 (HSP90α) of the same compound?
Answer: The IC50 was over 1000 nM.

Question: What about the IC50 at 72 h (MV4-11 cells) of the same compound?
Answer: Its IC50 at 72 h is over 1000 nM.

Question: For Cc1sc2c(c1C)C(c1ccc(Cl)cc1)=N[C@@H](CC(=O)NCC(=O)NCCOc1ccc(-n3c(S)nnc3-c3cc(C(C)C)c(O)cc3O)cc1)c1nnc(C)n1-2 [Compound 48, (S)-2-(4-(4-chlorophenyl)-2,3,9-trimethyl-6H-thieno[3,2-f][1,2,4]triazolo[4,3-a][1,4]diazepin-6-yl)-N-(2-((2-(4-(3-(2,4-dihydroxy-5-isopropylphenyl)-5-mercapto-4H-1,2,4-triazol-4-yl)phenoxy)ethyl)amino)-2-oxoethyl)acetamide], which IC50 (BRD4 (BD1+BD2)) is on record?
Answer: The IC50 was 100 to 1000 nM.

Question: What about the IC50 (HSP90α) of the same compound?
Answer: Its IC50 is under 100 nM.

Question: And the IC50 at 72 h (MV4-11 cells)?
Answer: The IC50 at 72 h was 100 to 1000 nM.

Question: How did the IC50 (BRD4 (BD1+BD2)) turn out when Cc1sc2c(c1C)C(c1ccc(Cl)cc1)=N[C@@H](CC(=O)N1CCC(Cc3ccc(CN(C)Cc4ccc(-n5c(O)nnc5-c5cc(C(C)C)c(O)cc5O)cc4)cc3)CC1)c1nnc(C)n1-2 [Compound 83, (S)-2-(4-(4-chlorophenyl)-2,3,9-trimethyl-6H-thieno[3,2-f][1,2,4]triazolo[4,3-a][1,4]diazepin-6-yl)-1-(4-(4-(((4-(3-(2,4-dihydroxy-5-isopropylphenyl)-5-hydroxy-4H-1,2,4-triazol-4-yl)benzyl)(methyl)amino)methyl)benzyl)piperidin-1-yl)ethan-1-one, trifluoroacetic acid] was run?
Answer: The IC50 was over 1000 nM.

Question: What about the IC50 (HSP90α) of the same compound?
Answer: Its IC50 is 100 to 1000 nM.

Question: What about the IC50 at 72 h (MV4-11 cells) of the same compound?
Answer: The IC50 at 72 h was under 100 nM.

Question: Cc1cc(-c2nnc(C(=O)NCCN3CCCCC3)n2-c2ccc(CN3CCN(CC4CCN(C(=O)C[C@@H]5N=C(c6ccc(Cl)cc6)c6c(sc(C)c6C)-n6c(C)nnc65)CC4)CC3)cc2)c(O)cc1O [Compound 124, (S)-4-(4-((4-((1-(2-(4-(4-chlorophenyl)-2,3,9-trimethyl-6H-thieno[3,2-f][1,2,4]triazolo[4,3-a][1,4]diazepin-6-yl)acetyl)piperidin-4-yl)methyl)piperazin-1-yl)methyl)phenyl)-5-(2,4-dihydroxy-5-methylphenyl)-N-(2-(piperidin-1-yl)ethyl)-4H-1,2,4-triazole-3-carboxamide, trifluoroacetic acid] was tested. Which IC50 (BRD4 (BD1+BD2)) did it give?
Answer: The IC50 was under 100 nM.

Question: And the IC50 (HSP90α)?
Answer: The IC50 was 100 to 1000 nM.

Question: And the IC50 at 72 h (MV4-11 cells)?
Answer: Its IC50 at 72 h is under 100 nM.

Question: For Cc1sc2c(c1C)C(c1ccc(Cl)cc1)=N[C@@H](CC(=O)NCc1ccc(-n3c(S)nnc3-c3cc(C(C)C)c(O)cc3O)cc1)c1nnc(C)n1-2 [Compound 28, (S)-2-(4-(4-chlorophenyl)-2,3,9-trimethyl-6H-thieno[3,2-f][1,2,4]triazolo[4,3-a][1,4]diazepin-6-yl)-N-(4-(3-(2,4-dihydroxy-5-isopropylphenyl)-5-mercapto-4H-1,2,4-triazol-4-yl)benzyl)acetamide], which IC50 (BRD4 (BD1+BD2)) is on record?
Answer: The IC50 was 100 to 1000 nM.

Question: And the IC50 (HSP90α)?
Answer: The IC50 was 100 to 1000 nM.

Question: And the IC50 at 72 h (MV4-11 cells)?
Answer: Its IC50 at 72 h is 100 to 1000 nM.

Question: Which results are given for Cc1sc2c(c1C)C(c1ccc(Cl)cc1)=N[C@@H](CC(=O)N1CCC(Cc3ccc(-n4c(O)nnc4-c4cc(C(C)C)c(O)cc4O)cc3)CC1)c1nnc(C)n1-2 [Compound 3, 2-((6S)-4-(4-chlorophenyl)-2,3,9-trimethyl-6H-thieno[3,2-f][1,2,4]triazolo[4,3-a][1,4]diazepin-6-yl)-1-(4-(4-(3-(2,4-dihydroxy-5-isopropylphenyl)-5-hydroxy-4H-1,2,4-triazol-4-yl)benzyl)piperidin-1-yl)ethanone, trifluoroacetic acid]?
Answer: IC50 (BRD4 (BD1+BD2)): > 1000 nM; IC50 (HSP90α): 100 to 1000 nM; IC50 at 72 h (MV4-11 cells): < 100 nM

Question: For CCc1cc(-c2nnc(C(=O)NC(C)C)n2-c2ccc(CN3CCN(CC4CCN(C(=O)C[C@@H]5N=C(c6ccc(Cl)cc6)c6c(sc(C)c6C)-n6c(C)nnc65)CC4)CC3)cc2)c(O)cc1O [Compound 105, (S)-4-(4-((4-((1-(2-(4-(4-chlorophenyl)-2,3,9-trimethyl-6H-thieno[3,2-f][1,2,4]triazolo[4,3-a][1,4]diazepin-6-yl)acetyl)piperidin-4-yl)methyl)piperazin-1-yl)methyl)phenyl)-5-(5-ethyl-2,4-dihydroxyphenyl)-N-isopropyl-4H-1,2,4-triazole-3-carboxamide, trifluoroacetic acid], which IC50 (BRD4 (BD1+BD2)) is on record?
Answer: The IC50 was 100 to 1000 nM.

Question: And the IC50 (HSP90α)?
Answer: The IC50 was 100 to 1000 nM.

Question: And the IC50 at 72 h (MV4-11 cells)?
Answer: The IC50 at 72 h was under 100 nM.

Question: What does the source list for CCc1cc(-c2nnc(O)n2-c2ccc(CN3CCN(CC4CCN(C(=O)C[C@H]5N=C(c6ccc(Cl)cc6)c6c(sc(C)c6C)-n6c(C)nnc65)CC4)CC3)cc2)c(O)cc1O [Compound 27, 2-((6R)-4-(4-chlorophenyl)-2,3,9-trimethyl-6H-thieno[3,2-f][1,2,4]triazolo[4,3-a][1,4]diazepin-6-yl)-1-(4-((4-(4-(3-(5-ethyl-2,4-dihydroxyphenyl)-5-hydroxy-4H-1,2,4-triazol-4-yl)benzyl)piperazin-1-yl)methyl)piperidin-1-yl)ethanone, trifluoroacetic acid]?
Answer: IC50 (BRD4 (BD1+BD2)): > 1000 nM; IC50 (HSP90α): 100 to 1000 nM; IC50 at 72 h (MV4-11 cells): < 100 nM

Question: How did the IC50 (BRD4 (BD1+BD2)) turn out when Cc1sc2c(c1C)C(c1ccc(Cl)cc1)=N[C@@H](CC(=O)N1CCC(CCN[C@@H](C)C(=O)N[C@H](C(=O)N3CCC[C@H]3C(=O)Nc3snnc3-c3ccccc3)C3CCCCC3)CC1)c1nnc(C)n1-2 [Compound 130, (S)-1-((S)-2-((S)-2-((2-(1-(2-((S)-4-(4-chlorophenyl)-2,3,9-trimethyl-6H-thieno[3,2-f][1,2,4]triazolo[4,3-a][1,4]diazepin-6-yl)acetyl)piperidin-4-yl)ethyl)amino)propanamido)-2-cyclohexylacetyl)-N-(4-phenyl-1,2,3-thiadiazol-5-yl)pyrrolidine-2-carboxamide] was run?
Answer: Its IC50 is 100 to 1000 nM.

Question: What about the IC50 (HSP90α) of the same compound?
Answer: Its IC50 is over 1000 nM.

Question: And the IC50 at 72 h (MV4-11 cells)?
Answer: The IC50 at 72 h was 100 to 1000 nM.

Reference: US20220168427A1 (Ranok Therapeutics (Hangzhou) Co. Ltd., priority 2019, published 2022)
